Assay results taken from article PMC6928796, “Near-Infrared Markers based on Bacterial Phytochromes with Phycocyanobilin as a Chromophore” (International Journal of Molecular Sciences, 2019).

How the values were obtained:
[1] = target: T1, iRFP713 (Rhodopseudomonas palustris, UniProt G1FNL7, C15S); experiment: absorption and fluorescence spectroscopy; BV/PCB competition; format: binding; settings: not covalent; overnight with both tetrapyrroles, BV to PCB molar ratio 0.02 to 80
T1 construct: gene iRFP

[2] = target: T1, iRFP713; experiment: absorption, fluorescence, zinc-stained SDS-PAGE; BV/PCB competition; format: binding; settings: not covalent; apoprotein with 2-fold excess PCB, pH 8.0, 4 °C

Q: How did the “absorption and fluorescence spectroscopy; BV/PCB competition” value [1] turn out when `C=CC1=C(C)C(=Cc2[nH]c(C=C3N=C(C=C4NC(=O)C(C)=C4C=C)C(C)=C3CCC(=O)O)c(CCC(=O)O)c2C)NC1=O` [BV, biliverdin IXα] was run?
A: The binding affinity of BV ligand to iRFP713/C15S

Q: `C/C=C1/C(=C/c2[nH]c(/C=C3N=C(/C=C4\NC(=O)C(CC)=C4C)C(C)=C\3CCC(=O)O)c(CCC(=O)O)c2C)NC(=O)[C@@H]1C` [PCB, phycocyanobilin] was tested. Which “absorption, fluorescence, zinc-stained SDS-PAGE; BV/PCB competition” value [2] did it give?
A: iRFP713/C15S, lacking the conserved Cys15 residue, forms a fluorescent complex with PCB
